According to US9113629B2, “4-amino-6-(4-substituted-phenyl)-picolinates and 6-amino-2-(4-substituted-phenyl)-pyrimidine-4-carboxylates and their use as herbicides” (DOW AGROSCIENCES LLC, priority 2013, dated 2015):

What was measured:
[1] = Post-emergent Test III, herbicidal activity in wheat and barley; format: in vivo, Lolium multiflorum, Lolium rigidum; conditions: Lolium multiflorum, post-emergence, 504 h, Table 9, post-emergent, 21 d, read-out: Visual Growth Reduction (%) 21 Days After Application LOLSS; for pest or weed control at 35 g/ha: 35 g ai/ha; for pest or weed control at 70 g/ha: 70 g ai/ha
Method in brief: (§1)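 GR20, GR50, GR80 and GR90 come from probit analysis of visual injury scores (0 = none, 100 = complete kill) taken 21 d after treatment. Foliar application was by track sprayer delivering 187 L/ha at five rates, from high down to 1/16×, onto greenhouse plants at the 2–3 leaf stage, with solvent-blank controls.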

[2] = test system: APESV: bentgrass (Apera spica-venti); experiment: as above; format: in vivo; conditions: Table 9, 21 d; for pest or weed control at 35 g/ha: 35 g ai/ha; for pest or weed control at 70 g/ha: 70 g ai/ha; for GR50 APESV: dose for 50 percent growth reduction; for GR50 APESV / GR80 APESV: probit analysis; for GR80 APESV: dose for 80 percent growth reduction
Method in brief: as §1

[3] = test system: HORSS: barley, including spring and winter (Hordeum vulgare); experiment: as above; format: in vivo; conditions: Table 9, 21 d; for pest or weed control at 35 g/ha: 35 g ai/ha; for pest or weed control at 70 g/ha: 70 g ai/ha; for GR20 HORSS: dose for 20 percent growth reduction, probit analysis
Method in brief: as §1

[4] = test system: KCHSC: kochia (Kochia scoparia); experiment: as above; format: in vivo; conditions: Table 9, 21 d; for pest or weed control at 35 g/ha: 35 g ai/ha; for pest or weed control at 70 g/ha: 70 g ai/ha; for GR50 KCHSC: dose for 50 percent growth reduction; for GR50 KCHSC / GR80 KCHSC: probit analysis; for GR80 KCHSC: dose for 80 percent growth reduction
Method in brief: as §1

[5] = test system: LOLSS: ryegrass including, Italian ryegrass (Lolium multiflorum), rigid ryegrass (Lolium rigidum), annual ryegrass (Lolium multiflorum subsp. Gaudini); experiment: as above; format: in vivo; conditions: Table 9, probit analysis, 21 d; for GR50 LOLSS: dose for 50 percent growth reduction; for GR80 LOLSS: dose for 80 percent growth reduction
Method in brief: as §1

[6] = test system: SETVI: green foxtail (Setaria viridis); experiment: as above; format: in vivo; conditions: Table 9, 21 d; for pest or weed control at 35 g/ha: 35 g ai/ha; for pest or weed control at 70 g/ha: 70 g ai/ha; for GR50 SETVI: dose for 50 percent growth reduction; for GR50 SETVI / GR80 SETVI: probit analysis; for GR80 SETVI: dose for 80 percent growth reduction
Method in brief: as §1

[7] = test system: TRZSS: wheat, including spring and winter (Triticum aestivum); experiment: as above; format: in vivo; conditions: Table 9, 21 d; for GR20 TRZSS: dose for 20 percent growth reduction, probit analysis; for pest or weed control at 35 g/ha: 35 g ai/ha; for pest or weed control at 70 g/ha: 70 g ai/ha
Method in brief: as §1

[8] = Apera spica-venti, post-emergence, 504 h, post-emergent, read-out: Visual Growth Reduction (%) 21 Days After Application APESV
[9] = Hordeum vulgare, post-emergence, 504 h, post-emergent, read-out: Visual Growth Reduction (%) 21 Days After Application HORSS
[10] = Bassia scoparia, post-emergence, 504 h, post-emergent, read-out: Visual Growth Reduction (%) 21 Days After Application KCHSC
[11] = Setaria viridis, post-emergence, 504 h, post-emergent, read-out: Visual Growth Reduction (%) 21 Days After Application SETVI
[12] = Triticum aestivum, post-emergence, 504 h, post-emergent, read-out: Visual Growth Reduction (%) 21 Days After Application TRZSS

In the case of C=Cc1c(C(=O)O)nc(-c2ccc(Br)cc2)c(F)c1N [Compound 117], the pest or weed control at 35 g/ha [1] is reported as 45 to 59%, the pest or weed control at 70 g/ha [1] is reported as 60 to 74% and the pest or weed control at 35 g/ha [2, 8] is reported as 45 to 59%. For the same molecule, the pest or weed control at 70 g/ha [2, 8] was 60 to 74%, the “GR50 APESV” value [2] was 41 g ai/ha and the “GR80 APESV” value [2] was greater than 140 g ai/ha. For the same molecule, the pest or weed control at 35 g/ha [3, 9] was 0 to 29%, the pest or weed control at 70 g/ha [3, 9] was 0 to 29% and the “GR20 HORSS” value [3] was 73 g ai/ha. For the same molecule, the pest or weed control at 35 g/ha [4, 10] was 60 to 74%, the pest or weed control at 70 g/ha [4, 10] was 75 to 84% and the “GR50 KCHSC” value [4] was 20 g ai/ha. For the same molecule, the “GR80 KCHSC” value [4] was 67 g ai/ha, the “GR50 LOLSS” value [5] was 41 g ai/ha and the “GR80 LOLSS” value [5] was greater than 140 g ai/ha. The pest or weed control at 35 g/ha [6, 11] was 0 to 29%, the pest or weed control at 70 g/ha [6, 11] was 60 to 74% and the “GR50 SETVI” value [6] was 59 g ai/ha. The “GR80 SETVI” value [6] was 99 g ai/ha, the “GR20 TRZSS” value [7] was 32 g ai/ha and the pest or weed control at 35 g/ha [7, 12] was 0 to 29%. The pest or weed control at 70 g/ha [7, 12] was 30 to 44% and the melting point was 149 to 151 °C.
For Nc1c(Cl)c(C(=O)O)nc(-c2ccc(Br)cc2)c1Cl [Compound 125], the pest or weed control at 35 g/ha [1] was 0 to 29%, the pest or weed control at 70 g/ha [1] was 0 to 29% and the pest or weed control at 140 g/ha ([1]; 140 g ai/ha) was 45 to 59%. The pest or weed control at 35 g/ha [2, 8] was 75 to 84%, the pest or weed control at 70 g/ha [2, 8] was 85 to 94% and the pest or weed control at 140 g/ha ([2]; Apera spica-venti, post-emergence, 504 h, 140 g ai/ha, post-emergent, read-out: Visual Growth Reduction (%) 21 Days After Application APESV) was 95 to 100%. The “GR50 APESV” value [2] was 10 g ai/ha, the “GR80 APESV” value [2] was 41 g ai/ha and the pest or weed control at 35 g/ha [3, 9] was 85 to 94%. For the same molecule, the pest or weed control at 70 g/ha [3, 9] was 95 to 100%, the pest or weed control at 140 g/ha ([3]; Hordeum vulgare, post-emergence, 504 h, 140 g ai/ha, post-emergent, read-out: Visual Growth Reduction (%) 21 Days After Application HORSS) was 95 to 100% and the “GR20 HORSS” value [3] was 1 g ai/ha. For the same molecule, the pest or weed control at 35 g/ha [4, 10] was 60 to 74%, the pest or weed control at 70 g/ha [4, 10] was 85 to 94% and the pest or weed control at 140 g/ha ([4]; Bassia scoparia, post-emergence, 504 h, 140 g ai/ha, post-emergent, read-out: Visual Growth Reduction (%) 21 Days After Application KCHSC) was 95 to 100%. For the same molecule, the “GR50 KCHSC” value [4] was 8 g ai/ha, the “GR80 KCHSC” value [4] was 34 g ai/ha and the “GR50 LOLSS” value [5] was greater than 140 g ai/ha. For the same molecule, the “GR80 LOLSS” value [5] was greater than 140 g ai/ha, the pest or weed control at 35 g/ha [6, 11] was 85 to 94% and the pest or weed control at 70 g/ha [6, 11] was 85 to 94%. For the same molecule, the pest or weed control at 140 g/ha ([6]; Setaria viridis, post-emergence, 504 h, 140 g ai/ha, post-emergent, read-out: Visual Growth Reduction (%) 21 Days After Application SETVI) was 85 to 94%, the “GR50 SETVI” value [6] was 2 g ai/ha and the “GR80 SETVI” value [6] was 16 g ai/ha. For the same molecule, the “GR20 TRZSS” value [7] was 1 g ai/ha, the pest or weed control at 35 g/ha [7, 12] was 75 to 84% and the pest or weed control at 70 g/ha [7, 12] was 75 to 84%. For the same molecule, the pest or weed control at 140 g/ha ([7]; Triticum aestivum, post-emergence, 504 h, 140 g ai/ha, post-emergent, read-out: Visual Growth Reduction (%) 21 Days After Application TRZSS) was 85 to 94% and the melting point was 164.9 to 166.1 °C.
Molecule COC(=O)c1nc(-c2ccc(I)cc2F)cc(N)c1Cl [Compound 159] has a pest or weed control at 35 g/ha [1] of 45 to 59%, a pest or weed control at 70 g/ha [1] of 60 to 74% and a pest or weed control at 35 g/ha [2, 8] of 85 to 94%. The pest or weed control at 70 g/ha [2, 8] was 95 to 100%, the “GR50 APESV” value [2] was 11 g ai/ha and the “GR80 APESV” value [2] was 25 g ai/ha. For the same molecule, the pest or weed control at 35 g/ha [3, 9] was 85 to 94%, the pest or weed control at 70 g/ha [3, 9] was 95 to 100% and the “GR20 HORSS” value [3] was 1 g ai/ha. The pest or weed control at 35 g/ha [4, 10] was 85 to 94%, the pest or weed control at 70 g/ha [4, 10] was 95 to 100% and the “GR50 KCHSC” value [4] was 4 g ai/ha. The “GR80 KCHSC” value [4] was 19 g ai/ha, the “GR50 LOLSS” value [5] was 36 g ai/ha and the “GR80 LOLSS” value [5] was 89 g ai/ha. The pest or weed control at 35 g/ha [6, 11] was 45 to 59%, the pest or weed control at 70 g/ha [6, 11] was 60 to 74% and the “GR50 SETVI” value [6] was 43 g ai/ha. For the same molecule, the “GR80 SETVI” value [6] was 113 g ai/ha, the “GR20 TRZSS” value [7] was 1 g ai/ha and the pest or weed control at 35 g/ha [7, 12] was 85 to 94%. The pest or weed control at 70 g/ha [7, 12] was 95 to 100% and the melting point was 139.8 to 141.2 °C.
